From US9273101B2, “Functionalized biomaterials for tissue regeneration” (Nanomed3D S.R.L., priority 2011, dated 2016)
Entries after “also recorded” stand apart in the source; their conditions may differ.

Experiments:
[1] = Rheology of SAPeptide solutions and self-assembled scaffolds; type: physicochemical; settings: 1% w/v, 2% w/v and 3% w/v
Description: Rheological properties of the self-assembling peptides of the invention were determined using a controlled stress TA Instruments AR-2000ex rheometer (TA Instruments). A cone-and-plate geometry (acrylic cone diameter, 20 mm; angle, 1°; truncation gap 34 μm) was used. Preliminary strain sweeps were performed for each sample to define the linear viscoelastic region, thus ensuring that moduli were independent of strain. Time sweeps, after addition of PBS (1×) were recorded at 25 C (angular frequency ω=1 Hz) and continued till G′ plateaued. Frequency sweeps, both for peptide water solutions and for self-assembled scaffolds, were performed at 25 C with the instrument in oscillatory mode at controlled strain of 1%. Final strain sweeps was performed at 1 Hz oscillatory frequency and at 25 C: onset point of failure was calculated by linear interpolation and subsequent determination of the intersection of the G′ modes within the linear region and at material failure respectively.

murine NSCs [2] = experiment: Immunofluorescence of differentiated NSC progeny on SAP scaffolds, murine; type: cell-based
Description: (§1) In vitro tests were performed as previously described (8), in order to assess whether the biomaterials (assembled hydrogels) obtained with the SAPs of the present invention influenced NSCs adhesion, survival and/or differentiation. SAPeptides (30 μl for each well at a concentration of 10 mg/ml) were assembled into 96 multiwells two hours before cell. Cells (at a concentration of 2×10^4 cells/cm^2) were seeded on the top-surface of each assembled scaffold. Initially, cells were cultured with basal medium supplemented with βFGF (10 ng/ml), added to […]. At 3 days in vitro (DIV), βFGF medium was replaced with Leukemia Inhibitory Factor (LIF, Chemicon) (20 ng/ml) and Brain Derived Neurotrophic Factor (BDNF, Peprotech) (20 ng/ml). Fresh medium was added every three days. For both viability and differentiation assays positive and negative controls consisted of Cultrex-BME® substrate (R&D systems) (1:100 dilution in basal medium) and untreated bottom well surfaces respectively. Cell viability was quantified via CellTiter 96® Aqueous Proliferation Assay (Promega) at 7 DIV as recommended in the Promega protocol. After calibrating the linear response between the cell number and absorbance values, proliferated cell populations were quantified (n=5) by using a Vmax microplate reader (Molecular Devices) at 490 nm wavelength. Values, reported as means±standard error of the mean, were blanked to their respective controls consisting of same substrates and cell culture media without cells.
(§2) Immunofluorescence tests were performed for assaying the phenotypes of the differentiated human and murine NSC progenies. In the case of KLP and Ac-KLP just murine NSC have been used. Ac-KLP and KLP scaffolds were prepared at different concentrations in order to display three different stiffness values (viz. 100, 500 and 1000 Pa). This was done to assess the influence of scaffold concentration (and consequently its stiffness) over NSC differentiation. All the other peptides were tested at 1% v/w concentration instead. The following antibodies were used: rabbit polyclonal against GFAP (1:500, DakoCytomation) for astrocytes, mouse monoclonal against βIII-Tubulin (1:500, Covance) for neurons, mouse monoclonal against GalC (1:200, Chemicon) and O4 (1:200, Chemicon) for oligodendrocyes. Secondary Abs were Goat anti Mouse Alexa 488 (1:1000, Molecular Probes), Goat anti Mouse Cy3 (1:1000, Jackson Immunoresearch), Goat anti Rabbit Cy3 (1:1000, Jackson Immunoresearch). Cell nuclei were counterstained with DAPI (Molecular Probes). Quantitative analyses were performed by counting 100-300 cells for each of 9 randomly chosen fields over a total of 3 independent experiments. Phase contrast and fluorescence images of the adhering cells were acquired via Zeiss microscopes Axioplan 2 and ApoTome System at one week after seeding.

murine NSCs [3] = experiment: Imaging and cell proliferation assay (CellTiter 96 MTS) on assembled hydrogels, murine NSCs; type: cell-based; settings: 7 DIV
Description: as §1

human NSCs [4] = experiment: Imaging and cell proliferation assay (CellTiter 96 MTS) on assembled hydrogels, human NSCs; type: cell-based; settings: 7 DIV
Description: as §1

human NSCs [5] = experiment: Immunofluorescence of differentiated NSC progeny on SAP scaffolds, human; type: cell-based; settings: 1% scaffold, compared to Cultrex positive control
Description: as §1
as §2, with “Cell nuclei were counterstained with DAPI (Molecular Probes).” left out

murine NSC = experiment: NSC differentiation on exposure to soluble heptapeptides (immunofluorescence); type: cell-based; settings: 12 DIV, Cultrex and Laminin coated wells, peptide 0.1 mg/ml in media, vs untreated NSCs, p<0.05
Description: In vitro tests were performed as previously described (8), in order to assess whether the heptapeptides obtained of the present invention influence NSCs differentiation.
Murine cells (at a concentration of 2×10^4 cells/cm^2) were seeded in each well (96 multi-well plate) previously coated with Cultrex-BME® substrate (R&D systems) (1:100 dilution in basal medium, overnight incubation) or with Laminin (Roche) (1:5 dilution in PBS 1×, pH 7.4, overnight incubation).
Initially, cells were cultured with basal medium supplemented with βFGF (10 ng/ml), added to enhance neuronal progeny differentiation. At 3 days in vitro (DIV), βFGF medium was replaced with Leukemia Inhibitory Factor (LIF, Chemicon) (20 ng/ml) and Brain Derived Neurotrophic Factor (BDNF, Peprotech) (20 ng/ml). Fresh medium was added every three days. The chosen peptides were dissolved in all cell culture media (but not in the coatings) at a concentration of 0.1 mg/ml.
Immunofluorescence tests were performed for assaying the phenotypes of the differentiated murine NSC progenies. The following antibodies were used: rabbit polyclonal against GFAP (1:500, DakoCytomation) for astrocytes and mouse monoclonal against βIII-Tubulin (1:500, Covance) for neurons. Secondary Abs were Goat anti Mouse Alexa 488 (1:1000, Molecular Probes), Goat anti Mouse Cy3 (1:1000, Jackson Immunoresearch), Cell nuclei were counterstained with DAPI (Molecular Probes). Quantitative analyses were performed by counting 100-300 cells for each of 9 randomly chosen fields over a total of 3 independent experiments.
Values, reported as means±standard error of the mean (FIG. 1A).

[6] = 1% scaffold, compared to Cultrex positive control

With “Ac-KLPGWSGGGGLDLKLDLKLDLK-CONH2 (Ac-KLPGWSGGGGLDLKLDLKLDLK-NH2)” the “G′ and G″ values at different concentrations” value [1] was “increased with concentration increments” and the “differentiated neurons (βIIITubulin positive cells) in correspondence of stiffness reductions” value (murine NSCs [2]; scaffold stiffness 100, 500 and 1000 Pa) was “significant increments”.

With “NH2-FAQRVPPGGGLDLKLDLKLDLK-CONH2 (H-FAQRVPPGGGLDLKLDLKLDLK-NH2)” the “cell morphology, adhesion and spreading on assembled hydrogels” value (murine NSCs [3]) was “spread and branched cells”, the “cell viability / proliferated cell population (MTS)” value (murine NSCs [3]; scaffolds 10 mg/ml, vs control, P<0.005) was “significantly fostered cell viability; also recorded: cell population was bigger; also recorded: significantly favored” and the “cell morphology, adhesion and spreading on assembled hydrogels” value (human NSCs [4]) was “spread and branched cells”. For the same substance, the “cell viability / proliferated cell population (MTS)” value (human NSCs [4]; scaffolds 10 mg/ml, vs control, P<0.03) was “significantly fostered cell viability; also recorded: cell population was bigger; also recorded: significantly favored”, the “number of neurons (βIII-Tubulin) obtained” value (murine NSCs [2]; [6]) was “significantly higher” and the “number of oligodendrocytes (GalC/O4) obtained” value (murine NSCs [2]; [6]) was “significantly higher”. For the same substance, the “number of neurons (βIII-Tubulin) obtained” value (human NSCs [5]) was “significantly higher” and the “number of oligodendrocytes (GalC/O4) obtained” value (human NSCs [5]) was “significantly higher”.

With “NH2-GETRAPL-CONH2 (H-GETRAPL-NH2) [#GET]” the “percentage of differentiated neurons (Beta III Tubulin staining)” value (shortened to “percentage of differentiated neurons”) (murine NSC) was “significant increase”.

With “NH2-HAIYPRH-CONH2 (H-HAIYPRH-NH2) [#HAI]” the “percentage of differentiated neurons” value (murine NSC) was “significant increase”.

For “NH2-KLPGWSG-CONH2 (H-KLPGWSG-NH2) [#KLP]”, the “percentage of differentiated neurons” value (murine NSC) was “significant increase; also recorded: Highest increase”.
